Measurements taken from PMC12592400, “A unique inhibitor conformation selectively targets the DNA polymerase PolC of Gram-positive priority pathogens” (Nature Communications, 2025).
Converted amounts (≈) assume the structure as drawn.

Tested on: C. difficile 630Δerm
Test: Simplified agar dilution susceptibility of C. difficile carrying plasmid-based polC alleles
Format: cell-based, Clostridioides difficile
Settings: for MIC: Clostridioides difficile, 48 h
Method: E. coli strains were cultured aerobically at 37 °C at 180 rpm in Lysogeny Broth (LB) (1% w/v tryptone (Oxoid), 1% w/v NaCl (J.T.Baker), 0.5% w/v yeast extract). C. difficile strains were cultured in Brain Heart Infusion broth (BHI) (3.7% w/v brain heart infusion broth (Oxoid), 0.5% w/v yeast extract). Culturing of C. difficile was carried out anaerobically at 37 °C at 140 rpm in an atmosphere of 85% N2, 10% CO2, and 5% H2, using a Don Whitley VA1000 workstation. For solid media, 1.5% w/v agar (Alfa Aesar) was used. Where appropriate, media were supplemented with 50 mg/L colistin (Cayman Chemical), chloramphenicol (10 mg/L for liquid medium and 20 mg/L for agar plates), 30 mg/L kanamycin, and 15 mg/L thiamphenicol.
DNA fragments were amplified by PCR from total genomic DNA of C. difficile strain 630Δerm[40] with Q5 High-Fidelity DNA Polymerase (NEB), using oligonucleotides oNM-001/oNM-003 (amplifying the polC gene with its presumptive promoter). The oNM-001/oNM-003 PCR fragment was digested using KpnI (Roche) and BamHI (Thermo Scientific). Digesting of plasmid pAP24[65] with enzymes allowed for the isolation of plasmid backbone after agarose gel electrophoresis. The backbone was ligated to the digested PCR fragments and transformed into chemically competent DH5α E. coli cells by heat shock; transformants were selected on media containing chloramphenicol. To generate plasmids carrying variant polC genes, mutations were introduced in the plasmids harbouring wild-type polC using QuikChange Site-Directed Mutagenesis and verified by Sanger sequencing using primers listed in Supplementary Table 3. An overview of all constructed plasmids and strains can be found in Supplementary Table 4 and 5.
E. coli donor strain CA434 was transformed with the plasmid to be transferred and subsequently grown on agar plates containing chloramphenicol and kanamycin. A 1 mL aliquot of 20 h grown liquid E. coli transformant culture was pelleted by centrifugation (2 min at 10,000 x g) and cells were resuspended in 200 µL non-sporulating C. difficile 630Δerm culture. The mixture was plated onto non-selective BHI agar in 5 µL spots and after 20 h incubation, cells were harvested in 1 mL pre-reduced phosphate-buffered saline and plated in 100 µL aliquots on BHI agar supplemented with thiamphenicol and colistin. Putative transconjugants were confirmed by PCRs with primers oWKS-1070 and oWKS-1071 (targeting chromosomal gluD) and oWKS-1387, oWKS-1388, oWKS-1389, and oWKS-1390 (targeting traJ or repA on the plasmid). Note that these strains are merodiploid and carry a wild-type chromosomal copy of polC.
Susceptibilities of the parental and plasmid-carrying strains to IBZ and ACX-801 were determined using a simplified agar dilution method. In short, C. difficile strains were cultured for 20 h in liquid BHI. Bacterial cells were harvested by 10-min centrifugation at 3220 x g and resuspended in pre-reduced phosphate-buffered saline to a McFarland turbidity standard of 1.0. Suspensions were inoculated as 5 µL spots onto BHI agar containing different concentrations of inhibitor (0, 2, 4, 8, 16, 32, 64 mg/L). MICs (defined as the first dilution with severely impaired or no visible growth) were determined after 48 h and imaged on a SCAN500 plate imager (Interscience).

[1] = plasmid carrying polC-p.F1258I versus wild-type strain
[2] = plasmid carrying polC-p.F1258L versus wild-type strain
[3] = plasmid carrying polC-p.F1258S versus wild-type strain

Row | SMILES | MIC | increase in the MIC (plasmid carrying polC-p.A1263T versus wild-type strain) | increase of MIC [1] | increase of MIC [2] | increase of MIC [3]
1 | O=c1[nH]c(NCc2ccc3c(c2)OC(F)(F)O3)nc2c(F)nn(CCO)c12 [ACX-801, 5-(((2,2-difluorobenzo[d][1,3]dioxol-5-yl)methyl)amino)-3-fluoro-1-(2-hydroxyethyl)-1,6-dihydro-7H-pyrazolo[4,3-d]pyrimidin-7-one] | 2 µg/mL (≈ 5.22 µM) | fourfold | 32 fold | ≥ 32 fold | 4 fold
2 | O=c1[nH]c(NCc2ccc(Cl)c(Cl)c2)nc2ncn(CCN3CCOCC3)c12 [IBZ, N^2-(3,4-dichlorobenzyl)-7-(2-[1-morpholinyl]ethyl)guanine] | 2 µg/mL (≈ 4.72 µM) |  | 8 fold | 32 fold | 2 fold
